Test results taken from publication PMC3343029, “Crystal Structure of the Cysteine Desulfurase DndA from Streptomyces lividans Which Is Involved in DNA Phosphorothioation” (PLoS ONE, 2012).

Target: T1, DndA (Streptomyces lividans, UniProt A7TUX7, C344S)
T1 construct: full length residues 1-380, N-terminal His-tag (pET28a), expressed in E. coli BL21(DE3); homodimer; residues 2-359 in the model
Assay: X-ray crystallography, […] Å
Format: binding
Details: covalent; Schiff base with Lys200; crystals at pH 5.5 without L-cysteine

T1 sequence (A7TUX7 entry or part of it C344S): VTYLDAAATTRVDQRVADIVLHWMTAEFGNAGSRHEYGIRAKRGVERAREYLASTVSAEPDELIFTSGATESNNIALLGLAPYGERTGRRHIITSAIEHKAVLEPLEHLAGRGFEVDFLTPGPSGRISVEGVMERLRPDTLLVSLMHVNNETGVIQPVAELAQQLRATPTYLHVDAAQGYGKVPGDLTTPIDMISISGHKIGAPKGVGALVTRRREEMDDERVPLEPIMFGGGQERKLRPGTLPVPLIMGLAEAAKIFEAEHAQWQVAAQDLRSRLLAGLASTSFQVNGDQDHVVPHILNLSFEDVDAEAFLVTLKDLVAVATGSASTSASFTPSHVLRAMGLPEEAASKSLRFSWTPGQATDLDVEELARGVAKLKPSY

Cc1ncc(COP(=O)(O)O)c(C=O)c1O [PLP]
X-ray crystallography, 2.4 Å: there is a PLP cofactor which forms a Schiff base covalent bond with the amino
